This is an account of results in US11891365B2, “3-alkyl-4-amido-bicyclic [4,5,0] hydroxamic acids as HDAC inhibitors” (Valo Health, Inc., priority 2015, dated 2024).

The experiment concerns the target T1, Full length human recombinant HDAC6 protein (Homo sapiens, UniProt Q9UBN7).
T1 sequence (Q9UBN7 1-1215): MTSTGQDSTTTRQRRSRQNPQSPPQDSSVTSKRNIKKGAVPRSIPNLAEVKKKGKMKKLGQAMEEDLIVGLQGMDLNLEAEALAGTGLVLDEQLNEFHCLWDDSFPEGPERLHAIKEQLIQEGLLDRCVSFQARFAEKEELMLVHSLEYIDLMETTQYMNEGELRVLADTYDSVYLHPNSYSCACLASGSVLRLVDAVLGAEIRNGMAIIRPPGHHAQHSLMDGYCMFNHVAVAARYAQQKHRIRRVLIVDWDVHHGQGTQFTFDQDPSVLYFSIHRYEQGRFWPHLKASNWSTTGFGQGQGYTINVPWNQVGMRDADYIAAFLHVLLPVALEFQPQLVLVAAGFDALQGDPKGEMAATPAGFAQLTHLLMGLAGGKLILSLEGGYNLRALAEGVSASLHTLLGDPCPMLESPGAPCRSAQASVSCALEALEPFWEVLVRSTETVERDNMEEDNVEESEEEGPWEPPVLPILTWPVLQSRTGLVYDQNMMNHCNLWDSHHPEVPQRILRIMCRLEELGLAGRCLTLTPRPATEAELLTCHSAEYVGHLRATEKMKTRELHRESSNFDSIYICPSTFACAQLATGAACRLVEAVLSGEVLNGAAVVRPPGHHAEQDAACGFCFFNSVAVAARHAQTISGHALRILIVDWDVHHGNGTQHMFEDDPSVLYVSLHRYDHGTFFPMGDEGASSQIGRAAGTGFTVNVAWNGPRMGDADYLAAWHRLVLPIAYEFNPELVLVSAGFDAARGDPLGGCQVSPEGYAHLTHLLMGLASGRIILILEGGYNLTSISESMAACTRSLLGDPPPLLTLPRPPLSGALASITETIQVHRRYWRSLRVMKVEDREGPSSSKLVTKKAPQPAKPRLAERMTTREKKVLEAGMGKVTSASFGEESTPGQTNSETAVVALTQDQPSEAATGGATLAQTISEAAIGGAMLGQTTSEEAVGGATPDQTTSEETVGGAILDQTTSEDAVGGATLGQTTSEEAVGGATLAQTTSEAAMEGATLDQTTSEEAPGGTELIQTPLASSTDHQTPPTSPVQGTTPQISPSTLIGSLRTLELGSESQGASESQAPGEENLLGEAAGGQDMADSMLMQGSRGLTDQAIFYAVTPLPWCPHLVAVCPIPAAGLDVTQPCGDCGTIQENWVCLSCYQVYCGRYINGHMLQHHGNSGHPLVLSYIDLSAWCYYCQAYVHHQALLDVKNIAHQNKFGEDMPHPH
Description: In vitro histone deacetylase assay: enzymatic HDAC6 electrophoretic mobility shift assay. It counts as biochemical. The settings on record: 1 nM enzyme, 2 μM peptide substrate RHKK(Ac)-NH2, 25° C., 12 concentrations; read-out: Inhibitory Concentration (IC50) Values against HDAC6, Activity Range. The method, then: The enzymatic HDAC6 assay was performed using electrophoretic mobility shift assay. […] The enzymatic reactions were assembled in 384 well plates in a total volume of 25 μL in a reaction buffer composing: 100 mM HEPES, pH7.5, 25 mM KCl, 0.1% bovine serum albumin, 0.01% Triton X-100, 1% DMSO (from compounds) 2 μM of the fluorescently labeled peptide substrate and enzyme. The enzyme was added at a final concentration of 1 nM. The peptide substrate RHKK(Ac)—NH2 was used. The compounds were tested at 12 concentrations spaced by 3× dilution intervals. Negative control samples ([…] in the absence of inhibitor) and positive control samples (100%-inhibition) were assembled in replicates of four in each assay plate. The reactions were incubated at 25° C. and quenched by the addition of 45 μL of termination buffer (100 mM HEPES, pH 7.5, 0.01% Triton X-100, 0.05% SDS).
The terminated assay plates were analyzed on LabChip® 3000 microfluidic electrophoresis instrument (Perkin Elmer/Caliper Life Sciences). The fluorescence intensity of the electrophoretically separated de-acetylated product and substrate peptide was measured. Activity in each sample was determined as the product to sum ratio (PSR): P/(S+P), where P is the peak height of the product peptide and S is the peak height of the substrate peptide. Percent inhibition (Pinh) is determined using the following equation:
Pinh=(PSR0%−PSRinh)/(PSR0%−PSR100%)*100, where PSRinh is the product sum ratio in the presence of inhibitor, PSR0% is the average product sum ration in the absence of inhibitor and PSR100% is the average product sum ratio in 100%-inhibition control samples. The IC50 values of inhibitors were determined by fitting the %-inhibition curves with 4 parameter dose-response model using XLfit 4 software.

On to `CO[C@H]1C[C@H](C(=O)N2Cc3ccc(C(=O)NO)cc3OC[C@@H]2C)C1`, for which the IC50 is at most 0.1 µM.

As to `CO[C@H]1C[C@@H](C(=O)N2Cc3ccc(C(=O)NO)cc3OC[C@@H]2C)C1`, the IC50 was at most 0.1 µM.

`C[C@H]1COc2cc(C(=O)NO)ccc2CN1C(=O)[C@H]1C[C@H](Oc2ccccc2)C1` (single isomer, unassigned): the IC50 is at most 0.1 µM.

Regarding `C[C@H]1COc2cc(C(=O)NO)ccc2CN1C(=O)C1CCC(OC(F)(F)F)CC1` (single isomer, unassigned) [listing 1 of 2 here], the IC50 is at most 0.1 µM.

As for `C[C@H]1COc2cc(C(=O)NO)ccc2CN1C(=O)C1CC(Oc2ccccc2)C1` (single isomer, unassigned), the IC50 was at most 0.1 µM.

With `C[C@H]1COc2cc(C(=O)NO)ccc2CN1C(=O)C1CCC(OC(F)(F)F)CC1` (single isomer, unassigned) [listing 2 of 2 here], the IC50 was at most 0.1 µM.

In the case of `CO[C@H]1CC[C@H](C(=O)N2CCOc3cc(C(=O)NO)ccc3[C@@H]2C)CC1` (single isomer, unassigned), the IC50 is at most 0.1 µM.

With `COC1CCC(C(=O)N2Cc3ccc(C(=O)NO)cc3OC[C@@H]2C)CC1` (single isomer, unassigned) [listing 1 of 2 here], the IC50 was at most 0.1 µM.

`COC1CCC(C(=O)N2Cc3ccc(C(=O)NO)cc3OC[C@@H]2C)CC1` (single isomer, unassigned) [listing 2 of 2 here]: the IC50 was at most 0.1 µM.

As for `CO[C@H]1CC[C@@H](C(=O)N2CCOc3cc(C(=O)NO)ccc3[C@@H]2C)CC1` (single isomer, unassigned), the IC50 was at most 0.1 µM.

For `O=C(NO)c1ccc2c(c1)OCCN(C(=O)C1CCS(=O)(=O)CC1)C2` [4-(1,1-dioxidotetrahydro-2H-thiopyran-4-carbonyl)-N-hydroxy-2,3,4,5-tetrahydrobenzo[f][1,4]oxazepine-8-carboxamide], the IC50 was at most 0.1 µM.

With `O=C(NO)c1ccc2c(c1)OCCN(C(=O)C1(c3ccccc3Cl)CC1)C2` [4-(1-(2-chlorophenyl)cyclopropane-1-carbonyl)-N-hydroxy-2,3,4,5-tetrahydrobenzo[f][1,4]oxazepine-8-carboxamide], the IC50 is at most 0.1 µM.

`O=C(NO)c1ccc2c(c1)OCCN(C(=O)C1(c3cccc(Cl)c3)CC1)C2` [4-(1-(3-chlorophenyl)cyclopropane-1-carbonyl)-N-hydroxy-2,3,4,5-tetrahydrobenzo[f][1,4]oxazepine-8-carboxamide]: the IC50 is at most 0.1 µM.

As for `O=C(NO)c1ccc2c(c1)OCCN(C(=O)C1(c3ccc(Cl)cc3)CC1)C2` [4-(1-(4-chlorophenyl)cyclopropane-1-carbonyl)-N-hydroxy-2,3,4,5-tetrahydrobenzo[f][1,4]oxazepine-8-carboxamide], the IC50 is at most 0.1 µM.

Regarding `O=C(NO)c1ccc2c(c1)OCCN(C(=O)C1(c3ccc(F)cc3)CC1)C2` [4-(1-(4-fluorophenyl)cyclopropane-1-carbonyl)-N-hydroxy-2,3,4,5-tetrahydrobenzo[f][1,4]oxazepine-8-carboxamide], the IC50 is at most 0.1 µM.

Take `O=C(NO)c1ccc2c(c1)OCCN(C(=O)C1(Cn3ccnc3)CC1)C2` [4-(1-((1H-imidazol-1-yl)methyl)cyclopropane-1-carbonyl)-N-hydroxy-2,3,4,5-tetrahydrobenzo[f][1,4]oxazepine-8-carboxamide]: the IC50 was at most 0.1 µM.

For `O=C(NO)c1ccc2c(c1)OCCN(C(=O)C1(Cn3cccn3)CC1)C2` [4-(1-((1H-pyrazol-1-yl)methyl)cyclopropane-1-carbonyl)-N-hydroxy-2,3,4,5-tetrahydrobenzo[f][1,4]oxazepine-8-carboxamide], the IC50 was at most 0.1 µM.

Consider `CC(=O)N1CCCC(C(=O)N2CCOc3cc(C(=O)NO)ccc3C2)C1` (stereo not drawn) [4-(1-acetylpiperidine-3-carbonyl)-N-hydroxy-2,3,4,5-tetrahydrobenzo[f][1,4]oxazepine-8-carboxamide], for which the IC50 was at most 0.1 µM.

Regarding `CC(=O)N1CCC(C(=O)N2CCOc3cc(C(=O)NO)ccc3C2)C1` (stereo not drawn) [4-(1-acetylpyrrolidine-3-carbonyl)-N-hydroxy-2,3,4,5-tetrahydrobenzo[f][1,4]oxazepine-8-carboxamide], the IC50 lay in the range of 0.1 to 0.5 µM.

In the case of `O=C(NO)c1ccc2c(c1)OCCN(C(=O)C1(Cc3ccccc3)CC1)C2` [4-(1-benzylcyclopropane-1-carbonyl)-N-hydroxy-2,3,4,5-tetrahydrobenzo[f][1,4]oxazepine-8-carboxamide], the IC50 was at most 0.1 µM.

As to `CC1(C)CC(C(=O)N2CCOc3cc(C(=O)NO)ccc3C2)CCO1` (stereo not drawn) [4-(2,2-dimethyltetrahydro-2H-pyran-4-carbonyl)-N-hydroxy-2,3,4,5-tetrahydrobenzo[f][1,4]oxazepine-8-carboxamide], the IC50 is 0.1 to 0.5 µM.

As for `O=C(NO)c1ccc2c(c1)OCCN(C(=O)C1Cc3ccccc3C1)C2` [4-(2,3-dihydro-1H-indene-2-carbonyl)-N-hydroxy-2,3,4,5-tetrahydrobenzo[f][1,4]oxazepine-8-carboxamide], the IC50 was at most 0.1 µM.

As to `O=C(NO)c1ccc2c(c1)OCCN(C(=O)c1ccc3c(c1)CCO3)C2` [4-(2,3-dihydrobenzofuran-5-carbonyl)-N-hydroxy-2,3,4,5-tetrahydrobenzo[f][1,4]oxazepine-8-carboxamide], the IC50 was 0.1 to 0.5 µM.

Take `O=C(NO)c1ccc2c(c1)OCCN(C(=O)C1CC3(CCNCC3)c3ccccc31)C2` (stereo not drawn) [4-(2,3-dihydrospiro[indene-1,4′-piperidine]-3-carbonyl)-N-hydroxy-2,3,4,5-tetrahydrobenzo[f][1,4]oxazepine-8-carboxamide]: the IC50 is 0.1 to 0.5 µM.

`COc1ccc(C(=O)N2CCOc3cc(C(=O)NO)ccc3C2)c(OC)c1` [4-(2,4-dimethoxybenzoyl)-N-hydroxy-2,3,4,5-tetrahydrobenzo[f][1,4]oxazepine-8-carboxamide]: the IC50 was in the range of 0.1 to 0.5 µM.

Turning to `Cc1cccc(C)c1C(=O)N1CCOc2cc(C(=O)NO)ccc2C1` [4-(2,6-dimethylbenzoyl)-N-hydroxy-2,3,4,5-tetrahydrobenzo[f][1,4]oxazepine-8-carboxamide], the IC50 was in the range of 0.1 to 0.5 µM.

For the compound `O=C(NO)c1ccc2c(c1)OCCN(C(=O)CN1CCS(=O)(=O)CC1)C2` [4-(2-(1,1-dioxidothiomorpholino)acetyl)-N-hydroxy-2,3,4,5-tetrahydrobenzo[f][1,4]oxazepine-8-carboxamide], the IC50 is above 0.5 µM.

Regarding `CC(C(=O)N1CCOc2cc(C(=O)NO)ccc2C1)N1CCS(=O)(=O)CC1` (stereo not drawn) [4-(2-(1,1-dioxidothiomorpholino)propanoyl)-N-hydroxy-2,3,4,5-tetrahydrobenzo[f][1,4]oxazepine-8-carboxamide], the IC50 is above 0.5 µM.

Turning to `CC(C)(C(=O)N1CCOc2cc(C(=O)NO)ccc2C1)c1ccc2c(c1)OCCO2` [4-(2-(2,3-dihydrobenzo[b][1,4]dioxin-6-yl)-2-methylpropanoyl)-N-hydroxy-2,3,4,5-tetrahydrobenzo[f][1,4]oxazepine-8-carboxamide], the IC50 lay in the range of 0.1 to 0.5 µM.

For the compound `COc1ccc(C(C)(C)C(=O)N2CCOc3cc(C(=O)NO)ccc3C2)cc1OC` [4-(2-(3,4-dimethoxyphenyl)-2-methylpropanoyl)-N-hydroxy-2,3,4,5-tetrahydrobenzo[f][1,4]oxazepine-8-carboxamide], the IC50 is 0.1 to 0.5 µM.
